From patent US20250032449A1, “TREATMENT OF RHEUMATOID ARTHRITIS” (SYNACT PHARMA APS, priority 2021, published 2025)
Like-named read-outs stand apart in the source and are kept apart here.

What was measured:
[1] = test system: aminotransferases (ALT or ALAT, AST); settings: known effect of MTX; cited from earlier work
[2] = test system: melanocytes; settings: cited from earlier work
[3] = test system: MC3R; settings: cited from earlier work
[4] = test system: macrophages; settings: cited from earlier work
[5] = test system: experimental inflammatory arthritis; settings: oral; cited from earlier work
[6] = test system: newly diagnosed subjects with severe active RA (CDAI>22); assay: Phase IIa placebo-controlled study in early RA patients starting MTX: CDAI; settings: for CDAI Baseline, group mean / CDAI Screening, group mean / CDAI Week 4, group mean / CDAI Week 2, group mean / CDAI Week 5, group mean / CDAI Difference / CDAI Difference in %: n = 31; for CDAI Baseline, group mean / CDAI Screening, group mean: before treatment; for CDAI Week 4, group mean: end of treatment; for CDAI Week 2, group mean: mid-treatment; for CDAI Week 5, group mean: one week follow-up after last dosage; for CDAI Difference / CDAI Difference in %: week 4 versus baseline
[7] = test system: MC1R; settings: cited from earlier work
[8] = test system: mouse model of arthritis; settings: WO 2020/229297; cited from earlier work
[9] = test system: mouse primary macrophages; settings: cited from earlier work
[10] = steady conditions, repeated dose Phase I
[11] = test system: peritonitis; settings: oral, cited from earlier work
[12] = test system: alanine aminotransferase/alanine transaminase (ALAT)
From the text: The study population will consist of newly diagnosed subjects with severe active RA (CDAI (Clinical disease activity score)>22) who are to start up-titration with methotrexate (MTX).
Sodium, potassium, chloride, calcium, glucose, creatinine, urea, albumin, unconjugated and total bilirubin, aspartate transaminase (AST), alanine transaminase (ALT), alkaline phosphatase (ALP), gamma-glutamyl transferase (GGT) and INR. The biochemistry blood samples will be taken at all visits. A serum β-HCG pregnancy test will be taken at screening.
Safety measures (AEs, SAEs, including laboratory abnormalities) will be registered during the whole study duration.
ALAT is commonly elevated following MTX treatment.

[13] = 50 mg AP1189 (acetate salt) group
[14] = 50 mg AP1189 (acetate salt) once daily plus MTX (10-25 mg) weekly
[15] = 50 mg AP1189 (acetate salt) once daily plus MTX weekly
[16] = 100 mg AP1189 (acetate salt) group
[17] = 100 mg AP1189 (acetate salt) once daily plus MTX (10-25 mg) weekly
[18] = 100 mg AP1189 (acetate salt) once daily plus MTX weekly
[19] = 100 mg dosage AP1189 (acetate salt), with MTX
[20] = 50 mg AP1189 once daily plus MTX weekly, 2 weeks, n 32
[21] = 50 mg AP1189 once daily plus MTX weekly, 4 weeks (end of treatment), n 33
[22] = 50 mg AP1189 once daily plus MTX weekly, 5 weeks (one week after final dosage), n 32
[23] = 100 mg AP1189 once daily plus MTX weekly, 2 weeks, n 34
[24] = 100 mg AP1189 once daily plus MTX weekly, 4 weeks (end of treatment), n 33
[25] = 100 mg AP1189 once daily plus MTX weekly, 5 weeks (one week after final dosage), n 35

In the case of `CN(Cc1cnc2nc(N)nc(N)c2n1)c1ccc(C(=O)N[C@@H](CCC(=O)O)C(=O)O)cc1` [MTX, methotrexate], the “Effect on aminotransferases (transaminases)” value [1] is listed as “cause an increase in aminotransferases”.
For “(E)-N-trans-{3-[1-(2-nitrophenyl)-1H-pyrrol-2-yl]-allylidene}-aminoguanidinium acetate [AP1189]”, the Melanogenesis [2] is listed as “no melanogenesis was induced”, the ERK1/2 phosphorylation [3] is listed as “cause ERK1/2 phosphorylation” and the “canonical cAMP generation” value [3] is listed as “does not induce canonical cAMP generation”. The Cytokine release [4] was “reduce cytokine release”, the “Macroscopic and histological parameters of joint disruption” value [5] was “significant reduction” and the “CDAI Baseline, group mean” value [6, 13] was 36.1. For the same compound, the “CDAI Screening, group mean” value [6, 13] was 35.6, the “CDAI Week 4, group mean” value [6, 14] was 24.2 and the “CDAI Week 2, group mean” value [6, 14] was 29.9. For the same compound, the “CDAI Week 5, group mean” value [6, 14] was 22.9, the “CDAI Difference” value [6, 15] was −11.9 and the “CDAI Difference in %” value [6, 15] was 33%. For the same compound, the “CDAI Baseline, group mean” value [6, 16] was 39, the “CDAI Screening, group mean” value [6, 16] was 38.9 and the “CDAI Week 4, group mean” value [6, 17] was 23.9. The “CDAI Week 2, group mean” value [6, 17] was 28.9, the “CDAI Week 5, group mean” value [6, 17] was 21.3 and the “CDAI Difference” value [6, 18] was −15.1. The “CDAI Difference in %” value [6, 18] was 39%, the “Efficacy in treating rheumatoid arthritis (CDAI)” value [6, 19] was “a reduction in CDAI” and the “Effect in reducing CDAI” value ([6]; both tested dosages, 50 mg and 100 mg, with MTX) was “significant effect of AP1189 in reducing CDAI”. The ERK1/2 phosphorylation [7] was “cause ERK1/2 phosphorylation”, the “canonical cAMP generation” value [7] was “does not induce canonical cAMP generation” and the “Combined effect of AP1189 and methotrexate (MTX)” value [8] was “synergistic effect”. The Efferocytosis [9] was “proefferocytic effect”, the “C Max (mean +/− SD, N = 9)” value ([10]; 50 mg once daily) was 180 ± 38 ng/mL and the “C Trough (Mean +/− SD, N = 9)” value ([10]; 50 mg once daily) was 46 ± 14 ng/mL. The “C Max (mean +/− SD, N = 9)” value ([10]; 100 mg once daily) was 427 ± 76 ng/mL, the “C Trough (Mean +/− SD, N = 9)” value ([10]; 100 mg once daily) was 100 ± 25 ng/mL and the “C Max (mean +/− SD, N = 9)” value ([10]; 200 mg once daily) was 893 ± 198 ng/mL. The “C Trough (Mean +/− SD, N = 9)” value ([10]; 200 mg once daily) was 186 ± 45 ng/mL, the “Anti-inflammatory action in peritonitis” value [11] was “elicits anti-inflammatory actions” and the Resolution phase ([11]; peritonitis) was “accelerated the resolution phase”. For the same compound, the “ALAT 2 weeks (share of subjects with clinical significant abnormal value)” value [12, 20] was 6.3%, the “ALAT CSA (Clinical significant abnormal value), number” value [12, 20] was 2 and the “ALAT 4 weeks (share of subjects with clinical significant abnormal value)” value [12, 21] was 6.1%. For the same compound, the “ALAT CSA (Clinical significant abnormal value), number” value [12, 21] was 2, the “ALAT 5 weeks (share of subjects with clinical significant abnormal value)” value [12, 22] was 6.3% and the “ALAT CSA (Clinical significant abnormal value), number” value [12, 22] was 2. The “Effect on MTX-associated elevation of transaminases” value ([12]; 50 mg dosage AP1189 (acetate salt), with MTX) was “did not reduce MTX-associated elevation of transaminases”, the “ALAT 2 weeks (share of subjects with clinical significant abnormal value)” value [12, 23] was 0.0% and the “ALAT CSA (Clinical significant abnormal value), number” value [12, 23] was 0. For the same compound, the “ALAT 4 weeks (share of subjects with clinical significant abnormal value)” value [12, 24] was 0.0%, the “ALAT CSA (Clinical significant abnormal value), number” value [12, 24] was 0 and the “ALAT 5 weeks (share of subjects with clinical significant abnormal value)” value [12, 25] was 0.0%. For the same compound, the “ALAT CSA (Clinical significant abnormal value), number” value [12, 25] was 0, the “Effect on MTX-associated elevation of transaminases” value [12, 19] was “completely abolish the MTX-associated elevation of transaminases” and the ALAT change ([12]; dosage of 50 mg, with MTX, at 2 weeks, 4 weeks (EoT) and 5 weeks (FoV)) was “an increase in ALAT is observed”. For the same compound, the ALAT elevation ([12]; dosage of 100 mg AP1189, with MTX) was 0.0%.
